Laboratory results from patent publication US9387214B2, “Method of identifying therapies for pulmonary hypertension” (United Therapeutics Corporation, priority 2012, dated 2016).
“Also recorded” adds a separate entry of the source.

System: human erythrocytes
Assay: Erythrocyte ATP release
Format: cell-based
Procedure: Erythrocyte ATP release was measured in both the absence and presence of (a) the PGI2 agonist, treprostinil in the form of UT-15 or its vehicle, saline, and (b) alone or in combination with the selective PDE5 inhibitor, zapranist (ZAP, 10 μM).

For `CCCCC[C@H](O)CC[C@@H]1[C@H]2Cc3cccc(OCC(=O)O)c3C[C@H]2C[C@H]1O` [UT-15, treprostinil], the “ATP release from erythrocytes” value (UT-15 30 nM alone, n=7) was “no ATP release was detected”, the “ATP release from erythrocytes” value (UT-15 30 nM, cells pretreated with ZAP 10 μM, n=7) was “induce a response; also recorded: ATP release was stimulated” and the “ATP release from erythrocytes” value (UT-15 100 nM alone, n=7) was “no ATP release was detected”. For the same molecule, the “ATP release from erythrocytes” value (UT-15 100 nM, cells pretreated with ZAP 10 μM, n=7) was “induce a response; also recorded: ATP release was stimulated”, the “ATP release from erythrocytes compared to controls” value (UT-15 1 uM alone, n=7) was “increase in ATP release” and the “ATP release from human erythrocytes” value (UT-15 alone at 10 to 100 nM, FIG. 3) was “does not stimulate ATP release”. For the same molecule, the “ATP release from human erythrocytes” value (UT-15 alone, FIG. 2, concentration not printed in legend) was “stimulates increases in ATP release”.

With `CCCOc1ccccc1-c1nc2nn[nH]c2c(=O)[nH]1` [zapranist] the “potentiation of UT-15-induced increases in ATP release” value (FIG. 2, concentration not printed in legend) was “potentiated” and the “potentiation of UT-15-induced ATP release” value (ZAP 10 μM pretreatment, UT-15 1 uM, P<0.05) was “potentiated”.
